Entries after “also recorded” stand apart in the source; their conditions may differ. Read-outs that look alike come from different tables or passages of the source. Blank lines part the entries; values can stand above or below the compound they belong to.
Legend:
HDAC4 = HDAC4 (Homo sapiens, UniProt P56524); assay: HDAC4 activity assay; assay type: biochemical; conditions: HDAC4 vs HDAC8
CCRF-CEM cells = assay: Western blotting; assay type: cell-based, human; conditions: 10 μM, 5 h
[1] = tested on: HeLa (cervical adenocarcinoma); conditions: for SCI (CC50 HS-27/CC50 cancer), HeLa: selective cytotoxicity index
[2] = tested on: CEM (T cell leukemia) xenografts; conditions: mouse, in vivo
[3] = tested on: CCRF-CEM (T-cell leukemia); conditions: for SCI (CC50 HS-27/CC50 cancer), CEM: selective cytotoxicity index; for cytotoxicity at 50 μM, CEM (printed in CC50 column): 72 h
[4] = tested on: Ramos (Burkitt's B-cell lymphoma); conditions: selective cytotoxicity index
[5] = tested on: HS-27 (normal foreskin fibroblasts); assay: DNS cytotoxicity assay, HS-27; assay type: cell-based, human; conditions: 72 h, noncancerous cells
HDAC8 = biological target: T1, HDAC8 (Homo sapiens, UniProt Q9BY41); assay: HDAC8 activity assay; assay type: biochemical; conditions: at tested concentrations
T1 sequence (Q9BY41 1-377): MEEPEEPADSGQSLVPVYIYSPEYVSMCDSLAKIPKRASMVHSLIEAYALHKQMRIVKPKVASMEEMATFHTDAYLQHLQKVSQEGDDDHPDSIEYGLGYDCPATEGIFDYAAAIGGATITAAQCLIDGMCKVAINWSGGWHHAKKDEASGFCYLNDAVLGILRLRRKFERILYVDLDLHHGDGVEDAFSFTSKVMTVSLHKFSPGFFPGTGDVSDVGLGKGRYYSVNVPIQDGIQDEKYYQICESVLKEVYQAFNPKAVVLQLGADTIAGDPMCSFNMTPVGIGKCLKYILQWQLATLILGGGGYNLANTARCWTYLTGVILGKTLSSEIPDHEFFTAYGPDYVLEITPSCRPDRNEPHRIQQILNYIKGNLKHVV

[6] = tested on: HeLa (cervical adenocarcinoma); assay: cells; conditions: Homo sapiens, 72 h, read-out: % cell death at 10 μM, HeLa
PPARγ = biological target: T2, PPARγ (Homo sapiens, UniProt P37231); assay: PPARγ-GAL4 transactivation assay on HepG2 cells; assay type: cell-based; conditions: HepG2, 25, 5 and 1 μM
T2 sequence (P37231 238-503 limits assumed): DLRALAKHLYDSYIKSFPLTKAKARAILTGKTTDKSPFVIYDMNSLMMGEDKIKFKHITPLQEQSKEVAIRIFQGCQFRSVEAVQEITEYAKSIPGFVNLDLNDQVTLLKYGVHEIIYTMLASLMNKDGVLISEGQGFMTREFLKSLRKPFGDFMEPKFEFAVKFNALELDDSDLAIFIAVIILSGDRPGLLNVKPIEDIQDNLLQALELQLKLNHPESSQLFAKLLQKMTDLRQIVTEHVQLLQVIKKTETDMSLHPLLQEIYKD

Sequence of HDAC4 (P56524 655-1084 limits assumed): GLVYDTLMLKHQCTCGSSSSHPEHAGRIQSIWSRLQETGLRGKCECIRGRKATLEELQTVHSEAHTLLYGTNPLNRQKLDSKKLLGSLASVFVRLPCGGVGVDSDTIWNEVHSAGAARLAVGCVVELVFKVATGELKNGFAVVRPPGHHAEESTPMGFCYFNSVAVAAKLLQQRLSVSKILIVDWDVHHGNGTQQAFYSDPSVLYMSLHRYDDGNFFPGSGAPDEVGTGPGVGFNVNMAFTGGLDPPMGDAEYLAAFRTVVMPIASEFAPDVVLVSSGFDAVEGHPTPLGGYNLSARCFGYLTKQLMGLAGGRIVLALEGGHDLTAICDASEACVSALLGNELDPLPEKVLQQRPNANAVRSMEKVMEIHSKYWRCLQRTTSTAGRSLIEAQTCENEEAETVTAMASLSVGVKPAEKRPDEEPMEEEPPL

- potency toward HDAC4 over HDAC8 (from IC50 values) (HDAC4): at least 2 fold
Compound: O=C(COc1ccc2cc(/C=C3/SC(=O)NC3=O)ccc2c1)Nc1ccccc1 [7a, 2-((6-((2,4-Dioxothiazolidin-5-ylidene)methyl)naphthalen-2-yl)-oxy)-N-phenylacetamide]

- potency toward HDAC4 over HDAC8 (from IC50 values) (HDAC4): at least 2 fold
Compound: O=C(COc1ccc2cc(/C=C3/SC(=O)NC3=O)ccc2c1)Nc1ccc(F)cc1 [7b, 2-((6-((2,4-Dioxothiazolidin-5-ylidene)methyl)naphthalen-2-yl)-oxy)-N-(4-fluorophenyl)acetamide]

- HDAC8 inhibition (in words) (HDAC8): inactive; also recorded: not active
Compound: O=C(COc1ccc2cc(/C=C3/SC(=O)NC3=O)ccc2c1)Nc1ccc(Cl)c(Cl)c1 [7h, N-(3,4-Dichlorophenyl)-2-((6-((2,4-dioxothiazolidin-5-ylidene)-methyl)naphthalen-2-yl)oxy)acetamide]

- HDAC8 inhibition (in words) (HDAC8): inactive
Compound: O=C(COc1ccc2cc(/C=C3/SC(=O)NC3=O)ccc2c1)Nc1ccc(F)cc1F [7k, N-(2,4-Difluorophenyl)-2-((6-((2,4-dioxothiazolidin-5-ylidene)-methyl)naphthalen-2-yl)oxy)acetamide]

- potency toward HDAC4 over HDAC8 (from IC50 values) (HDAC4): at least 2 fold
Compound: Cc1cccc(NC(=O)COc2ccc3cc(/C=C4/SC(=O)NC4=O)ccc3c2)n1 [7n, 2-((6-((2,4-Dioxothiazolidin-5-ylidene)methyl)naphthalen-2-yl)-oxy)-N-(6-methylpyridin-2-yl)acetamide]

- HDAC8 inhibition (in words) (HDAC8): did not show HDAC8 inhibition
Compound: O=C(COc1ccc2cc(/C=C3/SC(=O)NC3=O)ccc2c1)Nc1cc(Cl)cc(C(F)(F)F)c1 [7p, N-(3-Chloro-5-(trifluoromethyl)phenyl)-2-((6-((2,4-dioxothiazoli-din-5-ylidene)methyl)naphthalen-2-yl)oxy)acetamide]

- HDAC8 inhibition (in words) (HDAC8): inactive
Compound: O=C(COc1ccc2cc(/C=C3/SC(=O)NC3=O)ccc2c1)Nc1ccc(Br)cc1F [7r, N-(4-Bromo-2-fluorophenyl)-2-((6-((2,4-dioxothiazolidin-5-ylidene)methyl)naphthalen-2-yl)oxy)acetamide]

- potency toward HDAC4 over HDAC8 (from IC50 values) (HDAC4): at least 2 fold
Compound: O=C(COc1ccc2cc(/C=C3/SC(=O)NC3=O)ccc2c1)Nc1cccc(F)n1 [7s, 2-((6-((2,4-Dioxothiazolidin-5-ylidene)methyl)naphthalen-2-yl)-oxy)-N-(6-fluoropyridin-2-yl)acetamide]

- HDAC8 inhibition (in words) (HDAC8): not active
Compound: Cc1ccc(NC(=O)COc2ccc3cc(/C=C4/SC(=O)NC4=O)ccc3c2)cc1Cl [7u, N-(3-Chloro-4-methylphenyl)-2-((6-((2,4-dioxothiazolidin-5-ylidene)methyl)naphthalen-2-yl)oxy)acetamide]

- HDAC8 inhibition (in words) (HDAC8): not active
- PPARγ transactivation activity (in words) (PPARγ): poor activity
Compound: O=C(COc1ccc2cc(/C=C3/SC(=O)NC3=O)ccc2c1)Nc1ccc(Br)c(Br)c1 [7v, N-(3,4-Dibromophenyl)-2-((6-((2,4-dioxothiazolidin-5-ylidene)-methyl)naphthalen-2-yl)oxy)acetamide]

- potency toward HDAC4 over HDAC8 (from IC50 values) (HDAC4): at least 2 fold
Compound: O=C(COc1ccc2cc(/C=C3/SC(=O)NC3=O)ccc2c1)Nc1nc2ccccc2s1 [7w, N-(Benzo[d]thiazol-2-yl)-2-((6-((2,4-dioxothiazolidin-5-ylidene)-methyl)naphthalen-2-yl)oxy)acetamide]

- potency toward HDAC4 over HDAC8 (from IC50 values) (HDAC4): at least 2 fold
Compound: Cc1cccc2sc(NC(=O)COc3ccc4cc(/C=C5/SC(=O)NC5=O)ccc4c3)nc12 [7x, 2-((6-((2,4-Dioxothiazolidin-5-ylidene)methyl)naphthalen-2-yl)-oxy)-N-(4-methylbenzo[d]thiazol-2-yl)acetamide]

- potency toward HDAC4 over HDAC8 (from IC50 values) (HDAC4): at least 2 fold
Compound: CCOc1ccc2nc(NC(=O)COc3ccc4cc(/C=C5/SC(=O)NC5=O)ccc4c3)sc2c1 [7y, 2-((6-((2,4-Dioxothiazolidin-5-ylidene)methyl)naphthalen-2-yl)-oxy)-N-(6-ethoxybenzo[d]thiazol-2-yl)acetamide]

Further lines, the compound ahead of its results:

Compound: Cc1ccc(NC(=O)COc2ccc3cc(/C=C4/SC(=O)NC4=O)ccc3c2)cc1 [7c, 2-((6-((2,4-Dioxothiazolidin-5-ylidene)methyl)naphthalen-2-yl)-oxy)-N-(p-tolyl)acetamide]
- p53 expression (CCRF-CEM cells): no upregulated expression was observed
- c-Myc protein expression (CCRF-CEM cells; vs pioglitazone 10 μM): downregulation of the c-Myc protein much greater than positive control pioglitazone
- cleaved caspase-3 expression (CCRF-CEM cells; vs pioglitazone 10 μM): increased expression of cleaved caspase-3
- SCI (CC50 HS-27/CC50 cancer), HeLa [1]: 3.9
- body weights of the mice [2]: not significantly affected
- SCI (CC50 HS-27/CC50 cancer), CEM [3]: 14.4
- SCI (CC50 HS-27/CC50 cancer), Ramos [4]: 5.8

Compound: O=C(COc1ccc2cc(/C=C3/SC(=O)NC3=O)ccc2c1)Nc1cccc(C(F)(F)F)c1 [7e, 2-((6-((2,4-Dioxothiazolidin-5-ylidene)methyl)naphthalen-2-yl)-oxy)-N-(3-(trifluoromethyl)phenyl) acetamide]
- % cell death at 10 μM, HS-27 [5]: >40%
- HDAC8 inhibition (in words) (HDAC8): did not show HDAC8 inhibition

Compound: O=C(COc1ccc2cc(/C=C3/SC(=O)NC3=O)ccc2c1)Nc1cccc(Cl)c1 [7f, N-(3-Chlorophenyl)-2-((6-((2,4-dioxothiazolidin-5-ylidene)-methyl)naphthalen-2-yl)oxy)acetamide]
- HDAC8 inhibition (in words) (HDAC8): did not show HDAC8 inhibition
- SCI (CC50 HS-27/CC50 cancer), Ramos [4]: >10

Compound: COc1cccc(NC(=O)COc2ccc3cc(/C=C4/SC(=O)NC4=O)ccc3c2)c1 [7g, 2-((6-((2,4-Dioxothiazolidin-5-ylidene)methyl)naphthalen-2-yl)-oxy)-N-(3-methoxyphenyl)acetamide]
- SCI (CC50 HS-27/CC50 cancer), HeLa [1]: >10
- potency toward HDAC4 over HDAC8 (from IC50 values) (HDAC4): at least 2 fold
- cytotoxicity at 10 µM [6]: > 40%
- SCI (CC50 HS-27/CC50 cancer), Ramos [4]: >10

Compound: O=C(COc1ccc2cc(/C=C3/SC(=O)NC3=O)ccc2c1)Nc1c(F)cc(F)cc1Br [7i, N-(2-Bromo-4,6-difluorophenyl)-2-((6-((2,4-dioxothiazolidin-5-ylidene)methyl)naphthalen-2-yl)oxy)acetamide]
- SCI (CC50 HS-27/CC50 cancer), HeLa [1]: 3.8
- HDAC8 inhibition (in words) (HDAC8): inactive
- SCI (CC50 HS-27/CC50 cancer), CEM [3]: 4.2
- SCI (CC50 HS-27/CC50 cancer), Ramos [4]: 4.2

Compound: O=C(COc1ccc2cc(/C=C3/SC(=O)NC3=O)ccc2c1)Nc1ccccc1Oc1ccccc1 [7j, 2-((6-((2,4-Dioxothiazolidin-5-ylidene)methyl)naphthalen-2-yl)-oxy)-N-(2-phenoxyphenyl)acetamide]
- SCI (CC50 HS-27/CC50 cancer), HeLa [1]: >10
- % cell death at 10 μM, HS-27 [5]: 0%
- cytotoxicity at 10 µM [6]: > 40%
- SCI (CC50 HS-27/CC50 cancer), Ramos [4]: >10

Compound: Cc1cc(Br)ccc1NC(=O)COc1ccc2cc(/C=C3/SC(=O)NC3=O)ccc2c1 [7l, N-(4-Bromo-2-methylphenyl)-2-((6-((2,4-dioxothiazolidin-5-ylidene)methyl)naphthalen-2-yl)oxy)acetamide]
- SCI (CC50 HS-27/CC50 cancer), HeLa [1]: >10

Compound: O=C(COc1ccc2cc(/C=C3/SC(=O)NC3=O)ccc2c1)Nc1ccc(Br)cc1 [7o, N-(4-Bromophenyl)-2-((6-((2,4-dioxothiazolidin-5-ylidene)-methyl)naphthalen-2-yl)oxy)acetamide]
- SCI (CC50 HS-27/CC50 cancer), HeLa [1]: >10

Compound: CCc1ccc(CCOc2ccc(CC3SC(=O)NC3=O)cc2)nc1 (stereo not shown) [Pioglitazone, reference compound]
- cytotoxicity at 10 μM, HeLa (printed in CC50 column) ([1]; 10 μM, 72 h): 0% @ 10 μM
- cytotoxicity at 50 μM, CEM (printed in CC50 column) [3]: 0% @ 50 μM
- cytotoxicity at 50 μM, CEM (printed in CC50 column) ([3]; listed as pioglitazone): no cytotoxic effect

Compound: COc1cccc2c1C(=O)c1c(O)c3c(c(O)c1C2=O)C[C@@](O)(C(=O)CO)C[C@@H]3O[C@H]1C[C@H](N)[C@H](O)[C@H](C)O1 [doxorubicin, reference compound]
- body weights of the mice [2]: not significantly affected

Reference: article PMC10926851 (Journal of medicinal chemistry, 2021)
